For data set [1], the system named is enteric pathogens (E. coli, Salmonella, Listeria monocytogenes, Klebsiella). The data set can be described thus: Bacterial growth panel, OD600 growth-curve AUC ratio (heat map). In kind it is cell-based. Conditions: for antibacterial activity / potency against enteric pathogens (growth, AUC+test compound:AUC−test compound): 40 mM (BA, EBA, PBA), 20 mM (BBA), 10 mM (PeBA), 5 mM (HBA, SBA), 1 mM (OBA), 0.5 mM (DBA), 2 mM (DoDBA), 20 mM (FMPBA), 24-48 hrs; for selectivity for Gram Negative enteropathogens: growth panel.

In data set [2] the test system is Gram Positive aerobes and probiotic species (Lactobacillus, Bifidobacteria). Description: Bacterial growth panel, impact on non-target species (selectivity). In kind it is cell-based. Conditions: for selectivity against Probiotic spp: compared with BA.
A further data set concerns Henle-407 cells. Conditions: higher concentrations.
For data set [3], the system named is Feline Infectious Peritonitis Virus (FIPV) Black (TN-406). The data set can be described thus: FIPV replication and syncytium formation, immunofluorescence. Type of data set: cell-based, Feline Coronavirus type I. Conditions: 10, 20, 30, 40 mM; Feline Lung cells, 18 h post-infection.
A further data set relates to Listeria monocytogenes. Description: Bacterial growth panel, Listeria. In kind it is cell-based. The protocol: The control sample contained 40 mM NaCl.
Growth of bacteria with or without addition of C2-C8 C10, and C12 alkyl boronic acids, BA, or FMPBA was monitored by readings at OD600. […] The area under the curve (“AUC”) of the growth curve was calculated and the results were expressed as AUC+test compound:AUC−test compound.

In the next data set the test system is Feline Lung cells. Description: Cytotoxicity in FIPV infected Feline Lung cells.
In data set [4] the test system is probiotic Lactobacillus spp. The data set can be described thus: Growth of probiotic Lactobacillus strains. Conditions: three Lactobacillus strains.
The test system of data set [5] is AIEC and cancer associated E. coli. Description: Soft agar motility assay, E. coli. Type of data set: cell-based. Conditions: 10 h, AIEC NC101, 541-1, cancer associated E. coli. The protocol:
The ability of ABA C1-3 and BA to impact the motility of E. coli and Salmonella was evaluated using sloppy agar treated with and without BA and C1-C3 alkyl boronic acids. Motility is strongly linked to the virulence phenotype of these bacterial strains. E. coli was grown overnight at 37° C. in LB broth. Soft agar plates (1% tryptone, 0.5% NaCl, 0.25% agar) were prepared the day before the assay was carried out. Sterile NaCl (control), boric or boronic acid stock solution was added into the agar right before pouring the plates. The overnight cultures of E. coli were transferred (3 μl) on to the center of each plate, followed by incubation of the plates at 37° C. for 10 h. E. coli motility was quantified by measuring the diameter of the circular swarming area formed by the growing motile bacteria.

The test system of another data set is FIPV. Conditions: known drugs; cited from earlier work.

“Also recorded” adds a separate entry of the source.

On to `Cc1ccc(B(O)O)c(F)c1` [FMPBA, 2-fluro-4-methlyphenylboronic acid, reference compound], for which the “antibacterial activity / potency against enteric pathogens (growth, AUC+test compound:AUC−test compound)” value (“antibacterial activity / potency” below) in data set [1] is “more generalized and potent antibacterial activity than C2-C7 alkyl boronic acid compounds; also recorded: bacteriocidal”. Also, in data set [2] (same concentrations as growth panel), the “selectivity: impact on Gram Positive aerobes and probiotic species” value is “not selective and killed more Gram Positive aerobes and probiotic species than C2-C7 alkyl boronic acid compounds; also recorded: minimally selective”.
Regarding `CCCCCB(O)O` [PeBA, pentyl boronic acid], the “cytotoxicity in Henle cells” value with Henle-407 cells is reported as “cytotoxic at higher concentrations”.
As for `CCCCCCCCCCB(O)O` [DBA, decyl boronic acid, reference compound], the entries for the “antibacterial activity / potency” value in data set [1] and in [1] (listed as C10) were “marked decrease in antibacterial activity” and “much less potency than C2-C7 alkyl boronic acids”, respectively.
In the case of `CCCCB(O)O` [BBA, butyl boronic acid], in data set [1], the “antibacterial activity / potency” value is on record as “high potency vs enteropathogens while somewhat sparing probiotic species” and the “selectivity for Gram Negative enteropathogens” value is “highest”. Moreover, in data set [3], the “replication and syncytium formation of FIPV” value is “inhibited replication and syncytium formation of FIPV in infected cells; also recorded: antiviral activity was observed at lower doses without cytotoxicity”. The “selectivity against Probiotic spp” value in data set [2] is “more selective than BA”. For the same molecule, the “selectivity of activity against Listeria monocytogenes” value in the data set on Listeria monocytogenes is “selectivity apparent”. For the same molecule, the “cytotoxicity in antiviral assay” value in the data set with Feline Lung cells was “Cytotoxicity was observed”.
For the molecule `CB(O)O` [MBA, methyl boronic acid, reference compound], in data set [4], the “growth of probiotic Lactobacillus spp” value is “do not suppress growth”. For the same molecule, in data set [5], the “motility of E. coli” value is given as “had less impact”.
As for `CCCCCCB(O)O` [HBA, hexyl boronic acid], in data set [1], the “antibacterial activity / potency” value was “high potency vs enteropathogens while somewhat sparing probiotic species” and the “selectivity for Gram Negative enteropathogens” value is recorded as “highest”. The “cytotoxicity in Henle cells” value with Henle-407 cells is on record as “cytotoxic at higher concentrations”. Further, the “replication and syncytium formation of FIPV” value in [3] is “inhibited replication and syncytium formation of FIPV in infected cells; also recorded: antiviral activity was observed at lower doses without cytotoxicity”. Further, the “selectivity against Probiotic spp” value in data set [2] is “more selective than BA”. Moreover, the “selectivity of activity against Listeria monocytogenes” value with Listeria monocytogenes is “selectivity apparent”. Also, the “cytotoxicity in antiviral assay” value with Feline Lung cells was “Cytotoxicity was observed”.
`CCCCCCCB(O)O` [SBA, heptyl boronic acid]: the “selectivity for Gram Negative enteropathogens” value in data set [1] is “highest”.
As to `CCCCCCCCB(O)O` [OBA, octyl boronic acid, reference compound], the “antibacterial activity / potency” value in data set [1] was “marked decrease in antibacterial activity”; in data set [1] (listed as ABA C8), “much less potency than C2-C7 alkyl boronic acids”.
Consider `N#C[C@@]1(c2ccc3c(N)ncnn23)O[C@H](CO)[C@@H](O)[C@H]1O` [GS-441524], for which the “efficacy against FIPV” value in the data set with FIPV is listed as “some efficacy against FIPV”.
